The target of assay [1] is human α5β3γ2 receptors (α5-GABAA receptor) (Homo sapiens (Human), UniProt P18507+P31644). Briefly: 3H-flunitrazepam competition binding, human α5β3γ2 GABAA receptor. To be noted: HEK293 cell membranes, 1 nM 3H-flunitrazepam. In short, it runs like this: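 HEK293 membranes stably expressing each human receptor subtype ([…]) competed against 1 nM 3H-flunitrazepam in Tris buffer, 1 h at room temperature; flumazenil defined the low-signal control. Eight-point 4-fold test-compound dilutions; GF/C filtration and scintillation counting gave IC50 by curve fitting, converted to Ki.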

Assay [2] addresses α5-GABAA receptor (α5, β3, γ2 subunits) (Homo sapiens (Human), UniProt P18507+P31644). The experiment in a line: Whole cell patch clamp, inverse agonist efficacy in HEK293 cells expressing α5-GABAA receptor. Type of assay: cell-based. To be noted: HEK293, drug 100 nM, GABA 0.05 μM, −60 mV; read-out: Compound inverse agonist efficacy %. The source says: The inventors used electrophysiological methods to determine the inverse agonist efficacy of the drugs to be tested on the α5-GABAA receptor. The detailed methods are as follows:
Different subunits of the GABAA receptor were co-expressed in the HEK293 cell line to construct a fully functional GABAA receptor. The α, β, and γ subunits are essential to form a complete functional GABAA receptor. In this example, the present disclosure had established the following cell model: α5 subunit (see GenBank Accession No.: NM_000810.3 for protein sequences), β3 subunit (see GenBank Accession No.: NM_000814.5 for protein sequences), and γ2 subunit (see GenBank Accession No.: NM_000816.3 for protein sequences) were co-expressed in the HEK293 cell line, followed by screening the monoclonal stably transfected cell line. This cell line expressed a fully functional α5-GABAA receptor.
The monoclonal stably transfected HEK293 cell line expressing α5-GABAA receptor were cultured in 10 cm culture dishes and passaged when the cells grew to 80% to 90% confluent. During passaging, the culture medium was aspirated first, then 3 mL of DPBS phosphate buffer salt (Gibco™) was added to the culture dishes, and the culture dishes were shaken slightly, and DPBS was aspirated. 1 mL of trypsin (TrypLE Express, Gibco™) was added thereto, and the cells were digested at 37° C. for 1-2 minutes. Then 3 mL of complete medium (DMEM+10% FBS (Gibco™)) was added and the cells at the bottom of the culture dishes were dispersed. The cell suspension was transferred to a 15 mL centrifugal tube (Corning) and then centrifuged at 200 g for 3 minutes. The supernatant was discarded, 4 mL of complete medium was added, and the cells were gently blown and resuspended for use. If cell passaging was performed, the cell suspension was diluted at a ratio of 1:5 or 1:10. If cells for electrophysiological detection were prepared, the cell suspension was diluted in a ratio of 1:12, then added into a 24-well dish (Corning™) in which glass slides were placed and pretreated with Poly-D-Lysine, and the experiment was carried out after the cells adhered to the wall. The cells used for electrophysiology was cultured no more than 48 hours.
Drug concentration setting: The final drug concentration used in drug screening was 100 nM, and the GABA concentration was 0.05 μM. The whole cell patch clamp technique was used in electrophysiological assays, which could refer to the literature (I. Lecker, Y. Yin, D. S. Wang and B. A. Orser, British Journal of Anaesthesia, 2013, 110 (Si), i73-i81). The compositions of the extracellular solution for electrophysiology assay were as follows: 150 mM NaCl, 5 mM KCl, 2.5 mM CaCl2, 1 mM MgCl2, 10 mM HEPES, and 10 mM glucose (pH 7.4); the formulation of the electrode internal fluid for electrophysiology use was as follows: 140 mM CsCl, 11 mM EGTA, 10 mM HEPES, 2 mM CaCl2, 1 mM MgCl2, 4 mM MgATP, and 2 mM TEA (pH 7.3). The signal acquisition used an EPC-10 amplifier and the PatchMaster software (HEKA) or Axon700B amplifier and Clampex software (AXON). The recording electrode was pulled from borosilicate glass, and the electrode resistance was 4 to 6 MQ. The ALA-VC-8PG™ system was used for drug application. Single cell that grew independently was selected for recording. During recording, the cell membrane potential was clamped at −60 mV. During experiment, an extracellular solution was applied outside the cells for about 20 seconds. When the baseline reached to a stable state, the extracellular solution was switched to the GABA solution to induce an inward current. After about 20 to 40 seconds until the current was stable, the solution was switched to a corresponding drug solution to detect the effect of the drug. At last, the solution was switched to the extracellular solution, and the experiment was terminated when the baseline returned to the level before drug application. […]

The values that follow come from patent US20250136581A1, “SUBSTITUTED TRIAZOLE DERIVATIVE, PREPARATION METHOD THEREFOR, PHARMACEUTICAL COMPOSITION THEREOF, AND USE THEREOF” (SHANGHAI SIMR BIOTECHNOLOGY CO., LTD., priority 2021, published 2025).

SMILES strings stand for the structures. Where two headings read alike, the source gives them in different places.

As to `Cc1nnn(-c2ccc(C(F)F)cc2)c1COc1ccc(N2CCN(CC3CCOC3)C(=O)C2)nn1` (stereo not drawn) [Example 98, 4-(6-((1-(4-(Difluoromethyl)phenyl)-4-methyl-1H-1,2,3-triazol-5-yl)methoxy)pyridazin-3-yl)-1-((tetrahydrofuran-3-yl)methyl)piperazin-2-one], the Ki in assay [1] (read-out: α5-GABAAR Ki) is 1.53 nM. Besides, the inhibition at 0.1 µM in assay [2] is 53.7%.
The like results for `Cc1nnn(-c2ccc(C(F)F)cc2)c1COc1ccc(N2CCO[C@H](C(=O)O)C2)nn1` [Example 35, (S)-4-(6-((1-(4-(Difluoromethyl)phenyl)-4-methyl-1H-1,2,3-triazol-5-yl)methoxy)pyridazin-3-yl)morpholine-2-carboxylic acid] were, in that order, 9.03 nM and 52.8%.
For the compound `O=C1CN(c2ccc(OCc3c(Cl)nnn3-c3ccc(C(F)F)cc3)nn2)CCN1` [Example 131, 4-(6-((4-Chloro-1-(4-(difluoromethyl)phenyl)-1H-1,2,3-triazol-5-yl)methoxy)pyridazin-3-yl)piperazin-2-one], the Ki in assay [1] (read-out: α5-GABAAR Ki) was 1.34 nM. For the same compound, the inhibition at 0.1 µM in assay [2] came to 47.6%.
Consider `Cc1nnc([C@@H]2CN(c3ccc(OCc4c(C)nnn4-c4ccc(C(F)F)cc4)nn3)CCN2)o1` [Example 34, (S)-2-(4-(6-((1-(4-(Difluoromethyl)phenyl)-4-methyl-1H-1,2,3-triazol-5-yl)methoxy)pyridazin-3-yl)piperazin-2-yl)-5-methyl-1,3,4-oxadiazole], for which, in assay [1] (read-out: α5-GABAAR Ki), the Ki amounted to 7.08 nM. For the same compound, the inhibition at 0.1 µM in assay [2] was determined as 42.2%.
As to `CCNC(=O)C1CN(c2ccc(OCc3c(C)nnn3-c3ccc(C(F)F)cc3)nc2)C1` [Example 159, 1-(6-((1-(4-(Difluoromethyl)phenyl)-4-methyl-1H-1,2,3-triazol-5-yl)methoxy)pyridin-3-yl)-N-ethylazetidine-3-carboxamide], the Ki in assay [1] (read-out: α5-GABAAR Ki) was 20 nM. For the same compound, the inhibition at 0.1 µM in assay [2] amounted to 49.9%.
The like results for `COC(C)CN1CCN(c2ccc(OCc3c(C)nnn3-c3ccc(C(F)F)cc3)nn2)CC1=O` (stereo not drawn) [Example 141, 4-(6-((1-(4-(Difluoromethyl)phenyl)-4-methyl-1H-1,2,3-triazol-5-yl)methoxy)pyridazin-3-yl)-1-(2-methoxypropyl)piperazin-2-one] were, in that order, 4.27 nM and 47.2%.
With `Cc1nnn(-c2ccc(OC(F)F)cc2)c1COc1ccc(N2CCN3CCNC(=O)[C@@H]3C2)nn1` [Example 130, (S)-8-(6-((1-(4-(Difluoromethoxy)phenyl)-4-methyl-1H-1,2,3-triazol-5-yl)methoxy)pyridazin-3-yl)octahydro-2H-pyrazino[1,2-a]pyrazin-1(6H)-one], the Ki in assay [1] (read-out: α5-GABAAR Ki) is 17.1 nM. In addition, the inhibition at 0.1 µM in assay [2] worked out at 57%.
Taken in the same sequence, the figures for `Cc1nnn(-c2ccc(C(F)F)cc2)c1COc1ccc(N2CC(C(=O)NC3CCN(C)CC3)C2)nn1` [Example 46, 1-(6-((1-(4-(Difluoromethyl)phenyl)-4-methyl-1H-1,2,3-triazol-5-yl)methoxy)pyridazin-3-yl)-N-(1-methylpiperidin-4-yl)azetidine-3-carboxamide] were 1.91 nM and 41.8%.
Turning to `CNC(=O)[C@@H]1CN(c2ccc(OCc3c(C)nnn3-c3ccc(C(F)F)cc3)nn2)CCN1` [Example 30, (S)-4-(6-((1-(4-(Difluoromethyl)phenyl)-4-methyl-1H-1,2,3-triazol-5-yl)methoxy)pyridazin-3-yl)-N-methylpiperazine-2-carboxamide], in assay [1] (read-out: α5-GABAAR Ki), the Ki was 2.72 nM. Also, the inhibition at 0.1 µM in assay [2] turned out to be 41.9%.
As to `Cc1nnn(-c2ccc(C(F)F)cc2)c1COc1ccc(N2CCNC(=O)C2C)nn1` (stereo not drawn) [Example 11, 4-(6-((1-(4-(Difluoromethyl)phenyl)-4-methyl-1H-1,2,3-triazol-5-yl)methoxy)pyridazin-3-yl)-3-methylpiperazin-2-one], in assay [1] (read-out: α5-GABAAR Ki), the Ki is 0.58 nM. Also, the inhibition at 0.1 µM in assay [2] came out at 49.1%.
As to `Cc1nnn(-c2ccc(C(F)F)cc2)c1COc1ccc(N2CCN(CC3COC3)C(=O)C2)nn1` [Example 100, 4-(6-((1-(4-(Difluoromethyl)phenyl)-4-methyl-1H-1,2,3-triazol-5-yl)methoxy)pyridazin-3-yl)-1-(oxetan-3-ylmethyl)piperazin-2-one], the Ki in assay [1] (read-out: α5-GABAAR Ki) is 1.54 nM. The inhibition at 0.1 µM in assay [2] was determined as 54.6%.
Consider `Cc1nnn(-c2ccc(C(F)F)cc2)c1COc1ccc(N2CCN3CCN(C4COC4)C(=O)[C@@H]3C2)nn1` [Example 147, (S)-8-(6-((1-(4-(Difluoromethyl)phenyl)-4-methyl-1H-1,2,3-triazol-5-yl)methoxy)pyridazin-3-yl)-2-(oxetan-3-yl)hexahydro-2H-pyrazino[1,2-a]pyrazin-1(6H)-one], for which the Ki in assay [1] (read-out: α5-GABAAR Ki) is 6.55 nM. Besides, the inhibition at 0.1 µM in assay [2] came out at 54.5%.
Regarding `Cc1nnn(-c2ccc(C(F)F)cc2)c1COc1ccc(N2CCN3C4CCCCC4NC(=O)[C@@H]3C2)nn1` (stereo partly drawn) [Example 199, (4aS)-3-(6-((1-(4-(Difluoromethyl)phenyl)-4-methyl-1H-1,2,3-triazol-5-yl)methoxy)pyridazin-3-yl)decahydro-1H-pyrazino[1,2-a]quinoxalin-5(6H)-one], in assay [1] (α5-GABAAR Ki), the Ki stood at 3.17 nM. Further, the inhibition at 0.1 µM in assay [2] worked out at 60.2%.
For the compound `Cc1nnn(-c2ccc(C(F)F)cc2)c1COc1ccc(N2CC(C(=O)N3CC(C)OC(C)C3)C2)nn1` (stereo not drawn) [Example 156, (1-(6-((1-(4-(Difluoromethyl)phenyl)-4-methyl-1H-1,2,3-triazol-5-yl)methoxy)pyridazin-3-yl)azetidin-3-yl)(2,6-dimethylmorpholino)methanone], the Ki in assay [1] (read-out: α5-GABAAR Ki) is 4.13 nM. In assay [2], the inhibition at 0.1 µM is 44.3%.
The like results for `Cc1nnn(-c2ccc(C(F)F)cc2)c1COc1ccc(N2CCN(CCCC#N)C(=O)C2)nn1` [Example 143, 4-(4-(6-((1-(4-(Difluoromethyl)phenyl)-4-methyl-1H-1,2,3-triazol-5-yl)methoxy)pyridazin-3-yl)-2-oxopiperazin-1-yl)butanenitrile] were, in that order, 1.89 nM and 52.5%.
With `Cc1nnn(-c2ccc(C(F)F)cc2)c1COc1ccc(N2CC(C(=O)N3CCCC(O)C3)C2)nn1` (stereo not drawn) [Example 154, (1-(6-((1-(4-(Difluoromethyl)phenyl)-4-methyl-1H-1,2,3-triazol-5-yl)methoxy)pyridazin-3-yl)azetidin-3-yl)(3-hydroxypiperidin-1-yl)methanone], in assay [1] (read-out: α5-GABAAR Ki), the Ki turned out to be 5.26 nM. Moreover, in assay [2], the inhibition at 0.1 µM was found to be 46.6%.
The like results for `Cc1nnn(-c2ccc(C(F)F)cc2)c1COc1ccc(N2CCN(c3ccncc3)C(=O)C2)nn1` [Example 114, 4-(6-((1-(4-(Difluoromethyl)phenyl)-4-methyl-1H-1,2,3-triazol-5-yl)methoxy)pyridazin-3-yl)-1-(pyridin-pyridin-4-yl)piperazin-2-one] were, in that order, 2.82 nM and 51.3%.
On to `Cc1nnn(-c2ccc(C(F)F)cc2)c1COc1ccc(N2CC(C(=O)NC3CC3)C2)nn1` [Example 44, N-Cyclopropyl-1-(6-((1-(4-(difluoromethyl)phenyl)-4-methyl-1H-1,2,3-triazol-5-yl)methoxy)pyridazin-3-yl)azetidine-3-carboxamide], for which the Ki in assay [1] (read-out: α5-GABAAR Ki) came out at 2.31 nM. Further, the inhibition at 0.1 µM in assay [2] came to 49.6%.
